Data from patent US20260232573A1, “DEGARELIX ORGANIC SOLVENT FORMULATIONS” (TOLMAR INTERNATIONAL LIMITED, priority 2023, published 2026).
Non-standard residues stand in square brackets, D forms with d. Residues, ends and D or L forms follow the SMILES beside them. *: point of attachment. dPhe(4-NHCONH2) = NC(=O)Nc1ccc(C[C@@H](N)C(=O)O)cc1; Dihydroorotyl(S) = O=C1C[C@@H](C(=O)*)NC(=O)N1; dPhe(4-Cl) = N[C@H](Cc1ccc(Cl)cc1)C(=O)O; Phe(4-NH2) = Nc1ccc(C[C@H](N)C(=O)O)cc1; d2Nal = N[C@H](Cc1ccc2ccccc2c1)C(=O)O; Lys(iPr) = CC(C)NCCCC[C@H](N)C(=O)O; d3Pal = N[C@H](Cc1cccnc1)C(=O)O

Assay type: physicochemical
Text: Various organic solvents were screened for the maximal solubility of DgA-DS. […] Other solvents tested include-benzyl alcohol, PEG 300, propylene carbonate, triacetin, triethyl citrate, ethyl acetate, and benzyl benzoate.
Bulk solution: To produce the drug/solvent bulk solution comprising the active pharmaceutical ingredient (DgA or DgC), the desired amount of the DgA-DS or DgC-DS was combined with the solvent NMP or DMSO or combination of solvents with or without co-solvent or other additives, in the indicated amounts (see individual experiments below). The API and solvent were combined in a glass vial or jar and blanketed with nitrogen. Jars were mixed using the jar mill, Turbula, or shaker at room temperature until homogeneous. DgA or DgC are very soluble in NMP or DMSO and can load higher concentrations (at least 40% w/w).

concentration that can be loaded (solubility)	solubility capacity of degarelix	Compound	solubility
at least 40 % w/w	35-40 % w/w	CC(=O)N[C@H](Cc1ccc2ccccc2c1)C(=O)N[C@H](Cc1ccc(Cl)cc1)C(=O)N[C@H](Cc1cccnc1)C(=O)N[C@@H](CO)C(=O)N[C@@H](Cc1ccc(NC(=O)[C@@H]2CC(=O)NC(=O)N2)cc1)C(=O)N[C@H](Cc1ccc(NC(N)=O)cc1)C(=O)N[C@@H](CC(C)C)C(=O)N[C@@H](CCCCNC(C)C)C(=O)N1CCC[C@H]1C(=O)N[C@H](C)C(N)=O [DgA-DS, degarelix acetate] (Ac-[d2Nal][dPhe(4-Cl)][d3Pal]S[Phe(4-NH2)](Dihydroorotyl(S))[dPhe(4-NHCONH2)]L[Lys(iPr)]P[dA]-NH2)	either insoluble or has solubility limits much lower than NMP, DMSO or DMA
at least 40 % w/w		degarelix citrate [DgC]	
